Test results reported in PubChem BioAssay (NCI).
“And” between values parts separate entries of the source, which are not always exact repeats. Equal values may be shown once.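 In this assay, cells in 96-well plates receive the compound at five concentrations for 48 hours. Endpoints are linearly interpolated between the surrounding concentrations. GI50 marks 50% less growth. TGI is the concentration that stops growth completely.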

Tests used:
Assay in all cases: NCI tumour cell line growth inhibition, 48 h
[1] = test system: OVCAR-4 ovarian
[2] = test system: BT-549 breast
[3] = test system: SF-539 CNS
[4] = test system: SF-295 CNS
[5] = test system: COLO 205 colon
[6] = test system: LOX IMVI melanoma
[7] = test system: T-47D breast
[8] = test system: PC-3 prostate
[9] = test system: 786-0 renal
[10] = test system: NCI-H226 lung

Compound `C[C@H]1C(Oc2ccc(O)cc2)OC2OC3(C)CCC4[C@H](C)CCC1C24OO3` (stereo not given in full) has a GI50 [1] of 4.7 µM, a TGI [1] of 31 µM and a GI50 [2] of 8.34 µM. It also gave a TGI [2] of 23.7 µM, a GI50 [3] of 16.3 µM and a TGI [3] of 33 µM. The GI50 [4] was 16.2 µM, the TGI [4] was 34.5 µM and the GI50 [5] was 0.867 µM. The TGI [5] was 13.7 µM, the GI50 [6] was 11.5 µM and the TGI [6] was 30.6 µM. It also gave a GI50 [7] of 2.1 µM, a TGI [7] of 26.9 µM and a GI50 [8] of 0.251 µM. The TGI [8] was 14.8 µM, the GI50 [9] was 10.7 µM and the TGI [9] was 27.2 µM. For the same compound, the GI50 [10] was 15.9 µM and the TGI [10] was 31.2 µM.

`O=C(c1ccccc1)c1nc2ccc(C(F)(F)F)cc2[n+]([O-])c1C(F)(F)F` showed a GI50 [1] of 22.4 µM, a TGI [1] greater than 100 µM and a GI50 [2] of 31.5 µM. The TGI [2] was greater than 100 µM, the GI50 [3] was 51.1 µM and the TGI [3] was greater than 100 µM. It also gave a GI50 [4] of 19.7 µM, a TGI [4] greater than 100 µM and a GI50 [5] of 26.8 µM. The TGI [5] was greater than 100 µM, the GI50 [6] was 33.6 µM and the TGI [6] was greater than 100 µM. It also gave a GI50 [7] of 20.4 µM, a TGI [7] greater than 100 µM and a GI50 [8] of 24.5 µM. The TGI [8] was greater than 100 µM, the GI50 [9] was 48 µM and the TGI [9] was greater than 100 µM. It also gave a GI50 [10] of 59 µM and a TGI [10] greater than 100 µM.

Work on `CCC1CCc2nc3sc(C(=O)Nc4ccccc4C)c(N)c3cc2C1` (stereo not given) yielded a GI50 [1] of 0.694 µM, a TGI [1] greater than 100 µM and a GI50 [2] of 0.558 µM. For the same compound, the TGI [2] was greater than 100 µM, the GI50 [3] was 0.398 µM and the TGI [3] was greater than 100 µM. The GI50 [4] was 0.354 µM, the TGI [4] was greater than 100 µM and the GI50 [5] was 0.451 µM. The TGI [5] was greater than 100 µM, the GI50 [6] was 0.775 µM and the TGI [6] was greater than 100 µM. The GI50 [7] was 0.816 µM, the TGI [7] was greater than 100 µM and the GI50 [8] was 0.622 µM. The TGI [8] was greater than 100 µM, the GI50 [9] was 0.371 µM and the TGI [9] was greater than 100 µM. It also gave a GI50 [10] greater than 100 µM and a TGI [10] greater than 100 µM.

Compound `N#Cc1ccc(C(c2ccc(C#N)cc2)n2cncn2)cc1` has a GI50 [1] greater than 5000 µM, a TGI [1] greater than 5000 µM and a TGI [2] greater than 5000 µM. It also gave a GI50 [3] of 1250 µM, a TGI [3] greater than 5000 µM and a GI50 [4] of 182 µM. The TGI [4] was greater than 5000 µM, the GI50 [5] was greater than 5000 µM and the TGI [5] was greater than 5000 µM. The GI50 [6] was greater than 5000 µM, the TGI [6] was greater than 5000 µM and the GI50 [7] was greater than 5000 µM. It also gave a TGI [7] greater than 5000 µM, a GI50 [8] greater than 5000 µM and a TGI [8] greater than 5000 µM. The GI50 [9] was greater than 5000 µM, the TGI [9] was greater than 5000 µM and the GI50 [10] was greater than 5000 µM. The TGI [10] was greater than 5000 µM.

`Nc1nc(N)c2nc(CNc3ccc(C(=O)NC(CCCNC(=O)c4ccccc4C(=O)O)C(=O)O)cc3)cnc2n1` (stereo not given) showed a GI50 [1] greater than 100 µM, a TGI [1] greater than 100 µM and a TGI [2] greater than 100 µM. For the same compound, the GI50 [3] was 0.00346 µM, the TGI [3] was greater than 100 µM and the GI50 [4] was < 0.01 µM and 0.00332 µM. The GI50 [5] was 0.0765 µM, the TGI [5] was greater than 100 µM and the GI50 [6] was 0.000373 µM. The TGI [6] was greater than 100 µM, the TGI [7] was greater than 100 µM and the TGI [8] was greater than 100 µM. The GI50 [9] was 0.00054 µM, the TGI [9] was greater than 100 µM and the GI50 [10] was greater than 100 µM. For the same compound, the TGI [10] was greater than 100 µM.

`COc1ccccc1S(=O)(=O)Nc1ccc2c(c1)CN(C)C(=O)N2` was tested, and the GI50 [1] was 3.4 µM and 4.28 µM, the TGI [1] was greater than 100 µM and the GI50 [2] was 9.98 µM and 26.3 µM. For the same compound, the TGI [2] was greater than 100 µM, the GI50 [3] was 4.68 µM and 4.87 µM and the TGI [3] was 99.2 µM and > 100 µM. The GI50 [4] was 6.48 µM and 9.42 µM, the TGI [4] was greater than 100 µM and the GI50 [5] was 2.61 µM and 2.8 µM. The TGI [5] was greater than 100 µM, the GI50 [6] was 3.3 µM and 3.45 µM and the TGI [6] was 27.8 µM and 21.3 µM. The GI50 [7] was 3.27 µM, the TGI [7] was greater than 100 µM and the GI50 [8] was 10.7 µM and 16.3 µM. For the same compound, the TGI [8] was greater than 100 µM, the GI50 [9] was 7.79 µM and 8.82 µM and the TGI [9] was greater than 100 µM. The GI50 [10] was 9.98 µM and 16 µM and the TGI [10] was greater than 100 µM.

`CNC1C(O)C(OC2C(N)CC(N)C(OC3OC(C(C)O)C(O)C(O)C3N)C2O)OCC1(C)O` (stereo not given) showed a TGI [1] greater than 100 µM, a TGI [2] greater than 100 µM and a TGI [3] greater than 100 µM. For the same compound, the TGI [4] was greater than 100 µM, the TGI [5] was greater than 100 µM and the TGI [6] was greater than 100 µM. The TGI [7] was greater than 100 µM, the TGI [8] was greater than 100 µM and the TGI [9] was greater than 100 µM. It also gave a TGI [10] greater than 100 µM.

In the case of `Cc1c(NC(=O)OC[C@@H]2COCCN2)cn2ncnc(Nc3ccc4c(cnn4Cc4cccc(F)c4)c3)c12`, the GI50 [1] is reported as > 10 µM and 8.04 µM, the TGI [1] is reported as > 10 µM and 27.3 µM and the GI50 [2] is reported as > 10 µM and 8.52 µM. The TGI [2] was > 10 µM and 22.7 µM, the GI50 [3] was > 10 µM and 11.3 µM and the TGI [3] was > 10 µM and 25.2 µM. The GI50 [4] was 9.08 µM and 5.67 µM, the TGI [4] was > 10 µM and 20.6 µM and the GI50 [5] was 4.75 µM and 5.07 µM. For the same compound, the TGI [5] was > 10 µM and 16.9 µM, the GI50 [6] was 5.8 µM and 5.39 µM and the TGI [6] was > 10 µM and 19.4 µM. For the same compound, the GI50 [7] was 1.36 µM and 1.14 µM, the TGI [7] was 9.52 µM and 10.3 µM and the GI50 [8] was > 10 µM and 10.2 µM. The TGI [8] was > 10 µM and 31.8 µM, the GI50 [9] was 8.46 µM and 6.1 µM and the TGI [9] was > 10 µM and 24.1 µM. The GI50 [10] was > 10 µM and 11.3 µM and the TGI [10] was > 10 µM and 35.6 µM.

Work on `C=C1C(=O)O[C@H]2[C@H]1CC/C(COC(=O)c1ccc(C#N)cc1)=C\CC[C@@]1(C)O[C@@H]21` yielded a GI50 [1] of 2.88 µM, a TGI [1] of 9.39 µM and a GI50 [2] of 1.44 µM. The TGI [2] was 3.15 µM, the GI50 [3] was 1.64 µM and the TGI [3] was 3.28 µM. The GI50 [4] was 8.16 µM, the TGI [4] was 20.7 µM and the GI50 [5] was 1.63 µM. For the same compound, the TGI [5] was 3.81 µM, the GI50 [6] was 1.56 µM and the TGI [6] was 2.99 µM. For the same compound, the GI50 [7] was 1.74 µM, the TGI [7] was 5.24 µM and the GI50 [8] was 3.97 µM. It also gave a TGI [8] of 15.6 µM, a GI50 [9] of 1.92 µM and a TGI [9] of 3.99 µM. For the same compound, the GI50 [10] was 2.26 µM and the TGI [10] was 7.6 µM.

`Cc1cc(C)nc(SC2=C(Nc3cccc(Cl)c3C)C(=O)N(Cc3ccccc3)C2=O)n1` gave a GI50 [1] greater than 160 µM, a TGI [1] greater than 160 µM and a GI50 [2] greater than 160 µM. It also gave a TGI [2] greater than 160 µM, a GI50 [3] greater than 160 µM and a TGI [3] greater than 160 µM. The GI50 [4] was greater than 160 µM, the TGI [4] was greater than 160 µM and the GI50 [5] was greater than 160 µM. For the same compound, the TGI [5] was greater than 160 µM, the GI50 [6] was greater than 160 µM and the TGI [6] was greater than 160 µM. The GI50 [7] was greater than 160 µM, the TGI [7] was greater than 160 µM and the GI50 [8] was greater than 160 µM. It also gave a TGI [8] greater than 160 µM, a GI50 [9] greater than 160 µM and a TGI [9] greater than 160 µM. It also gave a GI50 [10] greater than 160 µM and a TGI [10] greater than 160 µM.

`O=C(O)C1(Cc2cccc(Nc3nccs3)n2)CCC(Oc2cccc(Cl)c2F)CC1` (stereo not given) showed a GI50 [1] of 25.8 µM, a TGI [1] greater than 100 µM and a GI50 [2] of 14.6 µM. The TGI [2] was 32.1 µM, the GI50 [3] was 6.73 µM and the TGI [3] was 24.4 µM. The GI50 [4] was 1.31 µM, the TGI [4] was 27.9 µM and the GI50 [5] was 0.876 µM. For the same compound, the TGI [5] was 19.3 µM, the GI50 [6] was 7.62 µM and the TGI [6] was 22.5 µM. It also gave a GI50 [7] of 15.8 µM, a TGI [7] greater than 100 µM and a GI50 [8] of 17.4 µM. For the same compound, the TGI [8] was 84.3 µM, the GI50 [9] was 15.5 µM and the TGI [9] was 40.3 µM. It also gave a GI50 [10] of 11.6 µM and a TGI [10] of 39.6 µM.

`COc1ccc(Cn2cc3c(c2-c2cc(OC)c(OC)c(OC)c2)CCc2cnoc2-3)cc1[N+](=O)[O-]` showed a GI50 [1] of 3.75 µM, a TGI [1] greater than 100 µM and a GI50 [2] of 7.9 µM. It also gave a TGI [2] greater than 100 µM, a GI50 [3] of 1.12 µM and a TGI [3] of 13.8 µM. The GI50 [4] was 0.328 µM, the TGI [4] was 2.09 µM and the GI50 [5] was 0.73 µM. The TGI [5] was 3.28 µM, the GI50 [6] was 0.898 µM and the TGI [6] was greater than 100 µM. The GI50 [7] was 3.58 µM, the TGI [7] was greater than 100 µM and the GI50 [8] was 1.39 µM. It also gave a TGI [8] greater than 100 µM, a GI50 [9] of 6.74 µM and a TGI [9] greater than 43.5 µM. The GI50 [10] was 4.33 µM and the TGI [10] was greater than 100 µM.
